Earlier results as cited in patent US20090054493A1, “THIAZOLE DERIVATIVES AS PPAR DELTA LIGANDS AND THEIR MANUFACTURING PROCESS” (priority 2005, published 2009).

Legend:
PPARδ = target: T1, PPARδ (Homo sapiens, UniProt Q03181); settings: background art, cited from earlier work
T1 sequence (Q03181 1-441): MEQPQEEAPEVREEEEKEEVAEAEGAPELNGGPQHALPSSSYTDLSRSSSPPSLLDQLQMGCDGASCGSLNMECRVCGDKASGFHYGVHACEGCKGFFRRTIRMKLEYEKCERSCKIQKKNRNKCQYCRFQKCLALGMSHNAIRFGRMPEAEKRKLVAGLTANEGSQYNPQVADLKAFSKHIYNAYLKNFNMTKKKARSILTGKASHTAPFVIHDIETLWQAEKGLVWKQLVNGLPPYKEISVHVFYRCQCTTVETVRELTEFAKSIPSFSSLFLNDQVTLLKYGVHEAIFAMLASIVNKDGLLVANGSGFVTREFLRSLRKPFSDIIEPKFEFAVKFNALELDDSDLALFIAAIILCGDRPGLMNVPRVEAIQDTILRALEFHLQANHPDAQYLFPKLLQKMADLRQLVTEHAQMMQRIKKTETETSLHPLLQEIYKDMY

PPARγ = target: T2, PPARγ (Mus musculus, UniProt P37238); settings: test on rodents, background art; cited from earlier work
T2 sequence (P37238 1-505): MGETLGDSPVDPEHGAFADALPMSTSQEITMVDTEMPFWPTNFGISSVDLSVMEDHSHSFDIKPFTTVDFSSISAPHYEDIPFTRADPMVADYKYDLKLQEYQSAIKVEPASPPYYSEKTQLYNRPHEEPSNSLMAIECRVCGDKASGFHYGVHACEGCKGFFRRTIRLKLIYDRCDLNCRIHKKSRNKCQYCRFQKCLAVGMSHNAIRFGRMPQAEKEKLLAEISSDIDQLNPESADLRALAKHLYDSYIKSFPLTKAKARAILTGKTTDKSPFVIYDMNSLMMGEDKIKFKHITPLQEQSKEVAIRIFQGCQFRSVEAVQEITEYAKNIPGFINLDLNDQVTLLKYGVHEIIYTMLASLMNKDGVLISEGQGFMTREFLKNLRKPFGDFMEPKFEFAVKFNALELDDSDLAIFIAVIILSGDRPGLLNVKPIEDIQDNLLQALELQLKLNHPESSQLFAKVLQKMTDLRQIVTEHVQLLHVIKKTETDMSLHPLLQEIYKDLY

Which “selectivity for hPPARδ than PPARα and PPARγ” value (PPARδ) does the source give for CCCc1c(OCCCOc2ccc(OCC(=O)O)cc2)ccc(C(C)=O)c1O [Example L-165041] here?
The value was 10 fold.

What about the EC50 (PPARδ; hPPARδ) of the same compound?
The EC50 was 0.53 µM.

And the “selectivity for PPARγ” value (PPARγ)?
Its value is “almost no selectivity”.
